How the values were obtained:
[1] = target: T1, 5-hydroxytryptamine receptor 1A (Rattus norvegicus, UniProt P19327); experiment: Displacement of [3H]-8-OH-DPAT from 5-HT1A receptor in Sprague-Dawley rat cortex membranes after 15 mins by liquid scintillation spectrometric method; assay type: cell membranes
T1 sequence (P19327 whole entry): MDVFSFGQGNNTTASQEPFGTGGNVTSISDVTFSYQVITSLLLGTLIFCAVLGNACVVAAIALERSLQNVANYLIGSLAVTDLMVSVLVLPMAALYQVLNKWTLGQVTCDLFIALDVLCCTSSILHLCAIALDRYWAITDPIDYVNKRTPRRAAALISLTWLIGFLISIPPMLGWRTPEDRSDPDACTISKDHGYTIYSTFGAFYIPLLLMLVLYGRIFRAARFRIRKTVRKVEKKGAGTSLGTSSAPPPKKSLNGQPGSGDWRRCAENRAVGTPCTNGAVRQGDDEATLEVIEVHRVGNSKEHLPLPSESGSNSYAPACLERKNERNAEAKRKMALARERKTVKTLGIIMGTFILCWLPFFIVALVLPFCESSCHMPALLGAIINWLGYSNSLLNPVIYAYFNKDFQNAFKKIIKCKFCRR

Rattus norvegicus [2] = species on record: Rattus norvegicus; experiment: Induction of stimulus generalization in rat trained to discriminate S(+)methamphetamine assessed as appropriate responding level to training drug by two lever method; assay type: functional
Rattus norvegicus [3] = species on record: Rattus norvegicus; experiment: Induction of stimulus generalization in Sprague-Dawley rat trained to discriminate S(+)AMPH assessed as appropriate responding level to training drug by two lever method; assay type: functional
Rattus norvegicus [4] = species on record: Rattus norvegicus; experiment: Induction of stimulus generalization in Sprague-Dawley rat trained to discriminate S(-)MCAT assessed as appropriate responding level to training drug by two lever method; assay type: functional
[5] = target: T2, 5-hydroxytryptamine receptor 2A (Rattus norvegicus, UniProt P14842); experiment: Displacement of [3H]ketanserin from 5HT2A in Sprague-Dawley rat frontal cortex membranes measured after 15 mins by scintillation counting method; set-up: species or system Membrane
T2 sequence (P14842 whole entry): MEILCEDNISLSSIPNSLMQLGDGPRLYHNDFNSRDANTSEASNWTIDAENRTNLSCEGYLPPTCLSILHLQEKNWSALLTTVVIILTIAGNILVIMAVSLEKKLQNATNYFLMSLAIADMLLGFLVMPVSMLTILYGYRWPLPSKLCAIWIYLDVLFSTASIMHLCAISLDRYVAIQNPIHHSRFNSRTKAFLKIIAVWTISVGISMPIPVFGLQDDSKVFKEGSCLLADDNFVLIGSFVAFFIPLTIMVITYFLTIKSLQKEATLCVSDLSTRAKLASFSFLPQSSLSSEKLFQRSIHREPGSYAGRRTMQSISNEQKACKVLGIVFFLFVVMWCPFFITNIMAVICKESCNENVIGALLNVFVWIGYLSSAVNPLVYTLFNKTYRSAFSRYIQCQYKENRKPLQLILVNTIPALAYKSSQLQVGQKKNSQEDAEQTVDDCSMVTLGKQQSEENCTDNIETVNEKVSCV

[6] = target: Sodium-dependent serotonin transporter (Rattus norvegicus, UniProt P31652); experiment: Activity at SERT in rat synaptosomes assessed as release of [3H]HT after 5 mins by liquid scintillation counting method; assay type: subcellular
Sodium-dependent serotonin transporter (Rattus norvegicus, UniProt P31652), sequence (P31652 whole entry): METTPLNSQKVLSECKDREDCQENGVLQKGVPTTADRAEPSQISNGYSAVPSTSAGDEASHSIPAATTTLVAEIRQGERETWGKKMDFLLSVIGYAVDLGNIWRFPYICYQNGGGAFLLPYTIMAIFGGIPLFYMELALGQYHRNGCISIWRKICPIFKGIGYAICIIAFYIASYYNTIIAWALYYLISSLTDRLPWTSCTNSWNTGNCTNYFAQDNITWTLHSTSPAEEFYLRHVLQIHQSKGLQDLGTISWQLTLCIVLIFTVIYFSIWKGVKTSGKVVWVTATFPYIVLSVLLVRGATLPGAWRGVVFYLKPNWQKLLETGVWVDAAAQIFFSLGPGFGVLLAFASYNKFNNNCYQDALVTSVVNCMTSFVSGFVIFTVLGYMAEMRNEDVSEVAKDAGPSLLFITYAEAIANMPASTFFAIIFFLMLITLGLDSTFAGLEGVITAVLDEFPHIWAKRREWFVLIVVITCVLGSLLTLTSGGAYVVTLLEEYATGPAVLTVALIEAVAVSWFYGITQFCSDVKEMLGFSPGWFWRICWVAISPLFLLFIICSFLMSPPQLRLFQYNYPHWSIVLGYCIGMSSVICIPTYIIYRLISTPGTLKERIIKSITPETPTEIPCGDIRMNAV

[7] = target: Sodium-dependent dopamine transporter (Rattus norvegicus, UniProt P23977); experiment: Activity at DAT in rat synaptosomes assessed as release of [3H]DA after 5 mins by liquid scintillation counting method; assay type: subcellular
Sodium-dependent dopamine transporter (Rattus norvegicus, UniProt P23977), sequence (P23977 whole entry): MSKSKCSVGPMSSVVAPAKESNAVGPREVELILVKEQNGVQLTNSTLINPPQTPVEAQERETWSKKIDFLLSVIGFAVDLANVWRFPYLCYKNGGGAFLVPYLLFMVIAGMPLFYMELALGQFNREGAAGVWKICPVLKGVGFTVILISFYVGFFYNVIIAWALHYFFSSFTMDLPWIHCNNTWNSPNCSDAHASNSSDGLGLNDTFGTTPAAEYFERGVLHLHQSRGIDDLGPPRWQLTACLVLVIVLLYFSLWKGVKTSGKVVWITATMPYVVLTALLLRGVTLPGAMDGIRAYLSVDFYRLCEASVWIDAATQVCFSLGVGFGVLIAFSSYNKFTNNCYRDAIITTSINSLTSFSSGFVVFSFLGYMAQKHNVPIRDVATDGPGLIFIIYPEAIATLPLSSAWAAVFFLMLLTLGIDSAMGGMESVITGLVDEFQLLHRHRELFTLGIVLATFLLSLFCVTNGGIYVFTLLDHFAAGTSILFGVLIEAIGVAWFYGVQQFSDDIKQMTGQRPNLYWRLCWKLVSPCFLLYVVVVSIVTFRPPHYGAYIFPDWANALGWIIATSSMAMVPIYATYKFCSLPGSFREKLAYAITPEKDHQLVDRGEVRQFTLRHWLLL

[8] = Activity at NET in rat synaptosomes assessed as release of [3H]NE after 30 mins by liquid scintillation counting method; assay type: subcellular
Rattus norvegicus [9] = species on record: Rattus norvegicus; experiment: Induction of stimulus generalization in rat trained to discriminate PMMA assessed as appropriate responding level to training drug by two lever method; assay type: functional; details: for ED50: Rattus norvegicus
Rattus norvegicus [10] = experiment: In vivo agonist activity at 5HT2A in ip dosed DOM-trained Sprague-Dawley rat assessed as increase in discriminative stimulus pretreated before testing; assay type: functional
Rhesus monkey = experiment: In vivo agonist activity at 5HT2A in DOM-trained rhesus monkey assessed as increase in discriminative stimulus administered subcutaneously pretreated before testing; assay type: functional; details: Macaca mulatta, sc
Rattus norvegicus [11] = species on record: Rattus norvegicus; experiment: Induction of stimulus generalization in rat trained to discriminate MDMA assessed as appropriate responding level to training drug by two lever method; assay type: functional
[12] = target: T2, 5-hydroxytryptamine receptor 2A; experiment: Displacement of [3H]DOB from 5HT2A in Sprague-Dawley rat cortex membranes measured after 15 mins by scintillation counting method; assay type: cell membranes
[13] = target: T2, 5-hydroxytryptamine receptor 2A; experiment: Displacement of [125I](+/-)DOI from rat 5HT2A after 1 hr by beta scintillation counting method
[14] = target: Sodium-dependent serotonin transporter (Homo sapiens, UniProt P31645); experiment: Activity at SERT (unknown origin) assessed as release of [3H]HT
Sodium-dependent serotonin transporter (Homo sapiens, UniProt P31645), sequence (P31645 whole entry): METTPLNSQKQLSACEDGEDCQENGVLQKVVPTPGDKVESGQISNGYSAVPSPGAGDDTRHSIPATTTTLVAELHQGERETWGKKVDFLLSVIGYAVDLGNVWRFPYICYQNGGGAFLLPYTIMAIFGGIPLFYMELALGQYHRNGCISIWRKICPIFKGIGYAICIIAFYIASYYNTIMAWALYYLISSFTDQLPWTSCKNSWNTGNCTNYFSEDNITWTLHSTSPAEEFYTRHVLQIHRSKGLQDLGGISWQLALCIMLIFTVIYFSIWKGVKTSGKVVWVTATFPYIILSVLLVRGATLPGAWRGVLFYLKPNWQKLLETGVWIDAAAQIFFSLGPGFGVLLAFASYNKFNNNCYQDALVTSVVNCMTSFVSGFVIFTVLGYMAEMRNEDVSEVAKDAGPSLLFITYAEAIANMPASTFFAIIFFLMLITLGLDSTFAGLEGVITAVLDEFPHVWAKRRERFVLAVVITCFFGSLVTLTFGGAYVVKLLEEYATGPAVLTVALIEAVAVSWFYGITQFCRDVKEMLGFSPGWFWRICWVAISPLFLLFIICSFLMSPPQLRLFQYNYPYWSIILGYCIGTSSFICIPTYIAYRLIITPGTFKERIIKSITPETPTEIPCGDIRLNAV

[15] = target: Sodium-dependent dopamine transporter (Homo sapiens, UniProt Q01959); experiment: Activity at DAT (unknown origin) assessed as release of [3H]DA
Sodium-dependent dopamine transporter (Homo sapiens, UniProt Q01959), sequence (Q01959 whole entry): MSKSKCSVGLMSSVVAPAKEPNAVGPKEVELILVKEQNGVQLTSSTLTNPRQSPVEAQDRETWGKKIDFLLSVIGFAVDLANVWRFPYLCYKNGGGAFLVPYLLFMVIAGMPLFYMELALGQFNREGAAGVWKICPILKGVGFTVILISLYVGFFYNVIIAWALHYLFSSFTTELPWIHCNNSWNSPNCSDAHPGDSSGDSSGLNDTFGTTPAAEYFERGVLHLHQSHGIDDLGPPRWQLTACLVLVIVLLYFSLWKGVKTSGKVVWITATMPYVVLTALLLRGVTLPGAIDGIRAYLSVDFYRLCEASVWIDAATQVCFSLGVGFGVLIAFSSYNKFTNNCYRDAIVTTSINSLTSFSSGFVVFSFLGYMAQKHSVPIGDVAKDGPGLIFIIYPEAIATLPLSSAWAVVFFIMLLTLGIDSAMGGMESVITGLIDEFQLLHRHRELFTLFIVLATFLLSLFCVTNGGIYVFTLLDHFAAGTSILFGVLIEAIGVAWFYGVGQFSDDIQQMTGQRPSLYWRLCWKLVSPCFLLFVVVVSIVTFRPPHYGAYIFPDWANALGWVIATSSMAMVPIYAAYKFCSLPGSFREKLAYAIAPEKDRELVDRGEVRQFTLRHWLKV

Homo sapiens = species on record: Homo sapiens; experiment: Selectivity ratio of EC50 for SERT (unknown origin) assessed as release of [3H]HT to EC50 for DAT (unknown origin) by [3H]DA release assay
Rattus norvegicus [16] = species on record: Rattus norvegicus; experiment: Induction of stimulus generalization in Sprague-Dawley rat trained to discriminate rac-cathinone assessed as appropriate responding level to training drug by two lever method; assay type: functional
Rattus norvegicus [17] = species on record: Rattus norvegicus; experiment: Induction of stimulus generalization in rat trained to discriminate (+)amphetamine assessed as appropriate responding level to training drug by two lever method; assay type: functional
Rattus norvegicus [18] = species on record: Rattus norvegicus; experiment: Induction of stimulus generalization in rat trained to discriminate (-)ephedrine assessed as appropriate responding level to training drug by two lever method; assay type: functional
[19] = Displacement of [3H]ketanserin from rat brain 5HT2 receptor
[20] = Displacement of [3H]DTG from sigma receptor (unknown origin); set-up: species or system Homo sapiens
[21] = target: Sigma non-opioid intracellular receptor 1 (Cavia porcellus, UniProt Q60492); experiment: Displacement of (+)-[3H]pentazocine from guinea pig brain membrane sigma1 receptor by scintillation spectrometric method
Sigma non-opioid intracellular receptor 1, sequence (Q60492 whole entry): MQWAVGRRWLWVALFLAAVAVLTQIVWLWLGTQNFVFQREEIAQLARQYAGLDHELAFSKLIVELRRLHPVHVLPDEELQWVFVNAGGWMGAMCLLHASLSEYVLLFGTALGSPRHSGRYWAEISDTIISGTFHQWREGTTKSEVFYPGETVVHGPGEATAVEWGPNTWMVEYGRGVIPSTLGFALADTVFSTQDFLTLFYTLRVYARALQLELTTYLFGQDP

Rattus norvegicus [22] = species on record: Rattus norvegicus; experiment: Induction of stimulus generalization in Sprague-Dawley rat trained to discriminate DOM assessed as appropriate responding level to training drug by two lever method; assay type: functional; details: Rattus norvegicus, Sprague-Dawley
Rattus norvegicus [23] = species on record: Rattus norvegicus; experiment: Induction of stimulus generalization in Sprague-Dawley rat trained to discriminate AMPH assessed as appropriate responding level to training drug by two lever method; assay type: functional
Rattus norvegicus [24] = species on record: Rattus norvegicus; experiment: Induction of stimulus generalization in Sprague-Dawley rat trained to discriminate MDMA assessed as appropriate responding level to training drug by two lever method; assay type: functional; details: Rattus norvegicus, Sprague-Dawley
Rattus norvegicus [25] = species on record: Rattus norvegicus; experiment: Induction of stimulus generalization in Sprague-Dawley rat trained to discriminate alpha-ET assessed as appropriate responding level to training drug by two lever method; assay type: functional; details: Rattus norvegicus, Sprague-Dawley
Rattus norvegicus [26] = species on record: Rattus norvegicus; experiment: Induction of stimulus generalization in rat trained to discriminate DOM assessed as appropriate responding level to training drug by two lever method; assay type: functional
Rattus norvegicus [27] = species on record: Rattus norvegicus; experiment: Induction of stimulus generalization in Sprague-Dawley rat trained to discriminate PMMA assessed as appropriate responding level to training drug by two lever method; assay type: functional

For `CCN(CC)[C@@H]1CCc2cccc(O)c2C1`, the Ki [1] was 9.65 nM.
Work on `CN(C)[C@@H]1CCc2cccc(O)c2C1` yielded a Ki [1] of 75 nM.
With `CN[C@@H](C)Cc1ccccc1` [METHAMPHETAMINE] the ED50 (Rattus norvegicus [2]) was 0.06 mg/kg, the ED50 (Rattus norvegicus [3]) was 0.2 mg/kg and the ED50 (Rattus norvegicus [4]) was 0.17 mg/kg.
With `CN[C@@H](C)Cc1ccc2c(c1)OCO2` the Ki [5] was 15800 nM, the EC50 [6] was 74 nM and the EC50 [7] was 142 nM. The EC50 [8] was 136 nM and the ED50 (Rattus norvegicus [9]) was 0.48 mg/kg.
In the case of `COc1cc(C[C@@H](C)N)c(OC)cc1I`, the ED50 (Rattus norvegicus [10]) is reported as 0.2 mg/kg and the ED50 (Rhesus monkey) is reported as 0.04 mg/kg.
For `COc1cccc(C[C@@H](C)N)c1`, the ED50 (Rattus norvegicus [11]; Rattus norvegicus) was 1.4 mg/kg and the Activity (Rattus norvegicus [9]) was 20 - 80%.
`COc1ccc(OC)c(CC(C)N)c1` (stereo not drawn) gave a Ki [12] of 268 nM.
`COc1cc([C@H](OC)[C@@H](C)N)c(OC)cc1Br` gave a Ki [13] of 17.4 nM.
For `CNC(C)C(=O)c1ccccc1` (stereo not drawn), the EC50 [14] was 3860 nM, the EC50 [15] was 12.5 nM and the Ratio EC50 (Homo sapiens) was greater than 200.
Compound `C[C@H](N)C(=O)c1ccccc1` [CATHINONE] has an ED50 (Rattus norvegicus [3]) of 0.34 mg/kg, an ED50 (Rattus norvegicus [4]) of 0.17 mg/kg and an ED50 (Rattus norvegicus [16]) of 0.22 mg/kg. The ED50 (Rattus norvegicus [17]) was 0.32 mg/kg.
In the case of `CN[C@@H](C)[C@H](O)c1ccccc1` [EPHEDRINE], the ED50 (Rattus norvegicus [2]) is reported as 13.1 mg/kg and the ED50 (Rattus norvegicus [18]) is reported as 0.8 mg/kg.
In the case of `COc1ccc(C[C@H](C)N)cc1`, the Activity (Rattus norvegicus [11]) is reported as 20 - 80% and the Activity (Rattus norvegicus [9]) is reported as 20 - 80%.
`C[C@@H](N)Cc1c[nH]c2ccccc12` showed a Ki [19] of 5000 nM.
`COc1ccc(C[C@@H](C)N)cc1` showed an Activity (Rattus norvegicus [11]) of less than 20% and an ED50 (Rattus norvegicus [9]) of 0.4 mg/kg.
`C=CCN1CCC2(C)c3cc(O)ccc3CC1C2C` (racemic) showed a Ki [20] of 430 nM.
Compound `CN[C@H](C)Cc1ccc2c(c1)OCO2` has a Ki [5] of 3310 nM, an EC50 [6] of 340 nM and an EC50 [7] of 3700 nM. It also gave an EC50 [8] of 560 nM.
For `CC1CCN(CCCCCc2ccccc2)CC1`, the Ki [21] was 0.07 nM.
In the case of `C[C@H](Cc1ccccc1)NCCCCCc1ccccc1`, the Ki [21] is reported as 0.5 nM.
For `CCC(N)Cc1c[nH]c2ccccc12` (racemic) [ETRYPTAMINE], the ED50 (Rattus norvegicus [22]) was 6.6 mg/kg, the Activity (Rattus norvegicus [23]) was 20 - 80% and the ED50 (Rattus norvegicus [24]) was 3.5 mg/kg. It also gave an ED50 (Rattus norvegicus [25]) of 1.3 mg/kg and an ED50 (Rattus norvegicus [26]) of 6.6 mg/kg.
`CC(Cc1ccccc1)NCCCCCc1ccccc1` (stereo not drawn) showed a Ki [20] of 6.3 nM.
Compound `CCCCN(CCCC)[C@@H]1CCc2cccc(O)c2C1` has a Ki [1] of 109 nM.
For `CNC(C)Cc1ccc(OC)cc1` (stereo not drawn), the ED50 (Rattus norvegicus [24]) was 0.2 mg/kg, the ED50 (Rattus norvegicus [27]) was 0.4 mg/kg and the ED50 (Rattus norvegicus [25]) was 0.7 mg/kg.
`C[C@@H](N)C(=O)c1ccccc1` gave an ED50 (Rattus norvegicus [16]) of 0.72 mg/kg and an ED50 (Rattus norvegicus [17]) of 4.41 mg/kg.
Work on `COc1cc([C@@H](OC)[C@H](C)N)c(OC)cc1Br` yielded a Ki [13] of 0.8 nM.
`CNC(C)C(=O)c1ccc(C(F)(F)F)cc1` (stereo not drawn) showed an EC50 [14] of 190 nM, an EC50 [15] of 2700 nM and a Ratio EC50 (Homo sapiens) of 14.
In the case of `CN[C@H](C)Cc1ccccc1`, the ED50 (Rattus norvegicus [2]) is reported as 1.61 mg/kg and the ED50 (Rattus norvegicus [18]) is reported as 0.9 mg/kg.
In the case of `C[C@H](N)[C@@H](O)c1ccccc1` [CATHINE], the ED50 (Rattus norvegicus [16]) is reported as 1.61 mg/kg.
For `CC(N)Cc1c[nH]c2ccccc12` (stereo not drawn), the Ki [19] was 3100 nM and the ED50 (Rattus norvegicus [26]) was 3.1 mg/kg.
